Laboratory results taken from US8940756B2, “Dihydronaphthyridines and related compounds useful as kinase inhibitors for the treatment of proliferative diseases” (Deciphera Pharmaceuticals, Inc., priority 2012, dated 2015).

What was measured:
[1] = biological target: T1, c-KIT VVDV kinase (V559 and V560 deleted and D816V mutation, Seq ID no. 5) (Homo sapiens, UniProt P10721, D816V/DEL559-560); test: cKIT-VVDV Kinase Assay; type: biochemical; conditions: enzymatic assay, ATP 200 uM
T1 construct: This construct contains residues T544-V976 of cKit (except for the D816V mutation and the deletion of residues V559 and V560); GST (N); TEV cleavage site (N); purchased deCODE Biostructures
Experimental: In this assay, the oxidation of NADH (measured by decrease in absorbance at 340 nm) was continuously monitored spectrophotometrically. […] The inhibition reaction was started by mixing serial diluted test compound with the above reaction mixture. The absorption at 340 nm was monitored continuously for 5 hours at 30° C. on Synergy 2 plate reader (BioTech). […] The protein construct was prepared by deCODE Biostructures using procedures known in the art. This construct contains […] of cKit (except for the D816V […]), an N-terminal tag, a GST-fusion sequence and a TEV cleavage site. This construct is identical to Seq ID no. 1 except for the D816V […].

[2] = biological target: T2, Phospho-KIT (Tyr719) in GIST882 cells (Homo sapiens, UniProt P10721, K642E); test: GIST882 KIT Western Blot; type: cell-based; conditions: 4 hours, read-out: pKIT suppression by western blot analysi GIST 882
T2 construct: endogenous in cells; host or cells: GIST882
Experimental: (§1) GIST48, GIST430, and GIST882 cells were obtained from J. Fletcher (Brigham and Women's Hospital, Boston, Mass.). GIST T1 cells were obtained from B. Rubin (Cleveland Clinic, Cleveland, Ohio) and Professor Takahiro Taguchi (Kochi Medical School, Nankoku, Kochi, Japan). […] GIST430 cells were grown in Ham's F10 medium supplemented with 15% characterized fetal bovine serum (Invitrogen, Carlsbad, Calif.), 30 mg/L bovine pituitary extract (BD Biosciences, San Jose, Calif.), 0.5% Mito+ serum extender (BD Biosciences, San Jose, Calif.), 1 unit/mL penicillin G, 1 μg/ml streptomycin, and 0.29 mg/mL L-glutamine at 37° C., 5% CO2, 95% humidity. GIST T1 cells were grown in DMEM medium supplemented with 10% characterized fetal bovine serum (Invitrogen, Carlsbad, Calif.), 1 unit/mL penicillin G, 1 ng/ml streptomycin, and 0.29 mg/mL L-glutamine at 37° C., 5% CO2, and 95% humidity. Cells were allowed to expand until reaching 70-95% confluence at which point they were subcultured or harvested for assay use.
Two hundred fifty thousand cells were added per well in a 24-well tissue-culture treated plate. Cells were then incubated overnight at 37° C., 5% CO2, 95% humidity. Medium was aspirated, cells were washed with PBS, and serum-free RPMI1640 medium was added. A serial dilution of test compound was added to plates containing cells and plates were incubated for 4 hours at 37° C., 5% CO2, 95% humidity. Cells were washed with PBS, then lysed. Cell lysates were separated by SDS-PAGE and transferred to PVDF. Phospho-KIT (Tyr719) was detected using an antibody from Cell Signaling Technology (Beverly, Mass.), ECL Plus detection reagent (GE Healthcare, Piscataway, N.J.) and a Molecular Devices Storm 840 phosphorimager in fluorescence mode. Blots were stripped and probed for total KIT using an antibody from Santa Cruz Biotech (Santa Cruz, Calif.). IC50 values were calculated using Prism software (Graphpad, San Diego, Calif.).

[3] = biological target: T3, Phospho-KIT (Tyr719) in GIST T1 cells (Homo sapiens, UniProt P10721, DEL560-578); test: GIST T1 KIT Western Blot; type: cell-based; conditions: 4 hours, read-out: pKIT suppression by western blot analysi GIST T1
T3 construct: endogenous in cells; host or cells: GIST T1
Experimental: as §1, with “Cells were allowed to expand until reaching 70-95% confluence at which point they were subcultured or harvested for assay use.” left out
One hundred twenty-five thousand cells were added per well in a 24-well tissue-culture treated plate. […] Phospho-KIT (Tyr719) was detected using an antibody from Cell Signaling Technology (Beverly, Mass.), ECL Plus detection reagent (GE Healthcare, Piscataway, N.J.) and a Molecular Devices Storm 840 phosphorimager in fluorescence mode. […] IC50 values were calculated using Prism software (Graphpad, San Diego, Calif.).

[4] = biological target: T4, c-KIT T670I kinase (Seq ID no. 6) (Homo sapiens, UniProt P10721, T670I); test: c-KIT T670I Kinase Assay; type: biochemical; conditions: enzymatic assay, ATP 200 uM
T4 construct: GST (N); TEV cleavage site (N); purchased deCODE Biostructures
T4 sequence (P10721 544-976 T670I): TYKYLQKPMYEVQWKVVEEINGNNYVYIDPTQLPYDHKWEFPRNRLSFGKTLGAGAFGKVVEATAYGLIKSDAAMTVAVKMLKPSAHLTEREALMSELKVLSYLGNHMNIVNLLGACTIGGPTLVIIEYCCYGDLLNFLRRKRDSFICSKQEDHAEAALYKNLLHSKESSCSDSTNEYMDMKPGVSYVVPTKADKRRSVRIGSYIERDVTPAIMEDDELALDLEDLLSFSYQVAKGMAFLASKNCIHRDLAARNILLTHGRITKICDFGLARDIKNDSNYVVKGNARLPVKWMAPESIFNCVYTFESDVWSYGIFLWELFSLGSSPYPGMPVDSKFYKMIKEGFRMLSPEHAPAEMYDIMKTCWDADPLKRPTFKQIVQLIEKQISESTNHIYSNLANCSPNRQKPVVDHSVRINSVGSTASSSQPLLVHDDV

T2 sequence (P10721 26-976 K642E): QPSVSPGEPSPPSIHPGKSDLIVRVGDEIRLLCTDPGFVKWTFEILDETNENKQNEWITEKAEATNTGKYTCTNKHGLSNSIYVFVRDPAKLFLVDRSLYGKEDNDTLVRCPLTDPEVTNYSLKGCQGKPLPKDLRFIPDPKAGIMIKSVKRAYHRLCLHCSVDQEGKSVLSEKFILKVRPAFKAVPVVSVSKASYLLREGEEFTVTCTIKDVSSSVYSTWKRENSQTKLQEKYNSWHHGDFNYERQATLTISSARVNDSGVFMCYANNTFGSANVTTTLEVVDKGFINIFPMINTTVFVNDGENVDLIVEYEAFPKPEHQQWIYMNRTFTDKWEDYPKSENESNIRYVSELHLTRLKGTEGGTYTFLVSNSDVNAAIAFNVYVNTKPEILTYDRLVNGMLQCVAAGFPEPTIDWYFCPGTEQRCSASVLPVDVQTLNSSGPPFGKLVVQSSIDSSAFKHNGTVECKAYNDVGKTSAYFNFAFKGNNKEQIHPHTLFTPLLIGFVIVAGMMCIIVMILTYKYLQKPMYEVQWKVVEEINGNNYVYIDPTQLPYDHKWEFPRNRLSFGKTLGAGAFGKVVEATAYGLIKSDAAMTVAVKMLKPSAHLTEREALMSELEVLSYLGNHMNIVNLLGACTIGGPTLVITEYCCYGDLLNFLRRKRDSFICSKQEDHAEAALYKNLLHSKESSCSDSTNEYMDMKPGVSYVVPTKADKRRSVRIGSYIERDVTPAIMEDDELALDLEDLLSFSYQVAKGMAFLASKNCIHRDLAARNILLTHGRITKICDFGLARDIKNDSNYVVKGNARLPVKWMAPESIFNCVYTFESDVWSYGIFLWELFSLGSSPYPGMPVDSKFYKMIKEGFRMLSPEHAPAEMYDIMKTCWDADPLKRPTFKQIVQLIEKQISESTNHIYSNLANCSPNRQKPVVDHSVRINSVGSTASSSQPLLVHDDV
T1 sequence (P10721 with tags, fused parts or gaps DEL559-560/D816V): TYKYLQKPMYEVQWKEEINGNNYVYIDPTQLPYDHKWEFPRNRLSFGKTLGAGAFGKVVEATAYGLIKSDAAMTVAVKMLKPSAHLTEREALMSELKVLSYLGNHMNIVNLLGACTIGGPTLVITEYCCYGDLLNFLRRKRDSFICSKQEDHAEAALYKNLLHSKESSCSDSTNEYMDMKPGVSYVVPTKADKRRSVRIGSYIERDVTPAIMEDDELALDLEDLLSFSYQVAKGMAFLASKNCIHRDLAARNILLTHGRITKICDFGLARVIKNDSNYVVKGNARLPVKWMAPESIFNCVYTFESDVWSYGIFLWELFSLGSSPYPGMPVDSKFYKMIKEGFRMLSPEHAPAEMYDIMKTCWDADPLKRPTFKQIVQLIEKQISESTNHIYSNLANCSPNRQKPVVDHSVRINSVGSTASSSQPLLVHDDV
T3 sequence (P10721 with tags, fused parts or gaps DEL560-578): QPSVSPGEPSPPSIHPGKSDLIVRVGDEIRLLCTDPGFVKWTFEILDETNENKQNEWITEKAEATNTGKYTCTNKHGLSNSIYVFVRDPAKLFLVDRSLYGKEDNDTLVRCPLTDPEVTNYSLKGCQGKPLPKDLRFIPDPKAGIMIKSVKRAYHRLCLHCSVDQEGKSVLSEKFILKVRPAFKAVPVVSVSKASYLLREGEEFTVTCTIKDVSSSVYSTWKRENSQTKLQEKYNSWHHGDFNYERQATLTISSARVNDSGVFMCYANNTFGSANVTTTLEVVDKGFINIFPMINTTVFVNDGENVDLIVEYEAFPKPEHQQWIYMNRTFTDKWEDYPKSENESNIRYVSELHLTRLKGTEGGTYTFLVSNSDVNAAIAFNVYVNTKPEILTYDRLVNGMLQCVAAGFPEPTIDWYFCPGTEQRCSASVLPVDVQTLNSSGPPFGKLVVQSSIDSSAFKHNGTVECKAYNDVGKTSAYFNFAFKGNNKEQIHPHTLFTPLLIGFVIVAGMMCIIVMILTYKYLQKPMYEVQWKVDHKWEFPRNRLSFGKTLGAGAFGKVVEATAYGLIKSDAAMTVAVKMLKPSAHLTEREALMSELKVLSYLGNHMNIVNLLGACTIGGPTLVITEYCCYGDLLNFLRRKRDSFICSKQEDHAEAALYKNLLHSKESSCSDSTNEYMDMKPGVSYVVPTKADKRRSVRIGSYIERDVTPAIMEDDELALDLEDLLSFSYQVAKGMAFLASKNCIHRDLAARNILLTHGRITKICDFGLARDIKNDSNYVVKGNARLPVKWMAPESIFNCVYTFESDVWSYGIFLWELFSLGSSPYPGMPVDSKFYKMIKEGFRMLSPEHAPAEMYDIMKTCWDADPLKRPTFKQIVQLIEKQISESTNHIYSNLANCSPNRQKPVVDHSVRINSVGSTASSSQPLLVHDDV

CCn1c(=O)c(-c2cc(NC(=O)Nc3ccccc3)c(F)cc2Cl)cc2cnc(N)cc21 [Example 21, 1-(5-(7-amino-1-ethyl-2-oxo-1,2-dihydro-1,6-naphthyridin-3-yl)-4-chloro-2-fluorophenyl)-3-phenylurea]
IC50 [1]: < 10 nM | IC50 [2]: 10 to 100 nM | IC50 [3]: < 10 nM | IC50 [4]: < 10 nM

CCn1c(=O)c(-c2cc(NC(=O)Nc3cccc(CN4CCN(C)CC4)c3)c(F)cc2Cl)cc2cnc(NC)cc21 [Example 79, 1-(4-chloro-5-(1-ethyl-7-(methylamino)-2-oxo-1,2-dihydro-1,6-naphthyridin-3-yl)-2-fluorophenyl)-3-(3-((4-methylpiperazin-1-yl)methyl)phenyl)urea]
IC50 [1]: > 1000 nM | IC50 [2]: > 1000 nM | IC50 [4]: 10 to 100 nM

CCn1c(=O)c(-c2cc(NC(=O)Nc3cc(F)cc(CN4CCN(C)CC4)c3)c(F)cc2Cl)cc2cnc(NC)cc21 [Example 88, 1-(4-chloro-5-(1-ethyl-7-(methylamino)-2-oxo-1,2-dihydro-1,6-naphthyridin-3-yl)-2-fluorophenyl)-3-(3-fluoro-5-((4-methylpiperazin-1-yl)methyl)phenyl)urea]
IC50 [2]: 100 to 1000 nM | IC50 [3]: < 10 nM | IC50 [4]: 10 to 100 nM
